In US8937041B2, “Macrocyclic hepatitis C serine protease inhibitors” (AbbVie, Inc., priority 2010, dated 2015):

Experiments:
HLM stability = assay type: in vitro ADME
[1] = test system: HCV genotype 1b replicon (1b-Con-1); assay: microbe, parasite or virus in culture; assay type: cell-based; settings: Hepatitis C virus, read-out: EC50 in a replicon cell line assay in a 1b-con1 background
[2] = target: recombinant HCV NS3 protease, genotype 1b (Hepatitis C virus genotype 1b, UniProt Q9WMX2); assay: biochemical; settings: genotype 1b NS3 protease; read-out: IC50 in a 1b enzyme assay
[3] = test system: HCV genotype 1a replicon (1a-H77); assay: microbe, parasite or virus in culture; assay type: cell-based; settings: Hepatitis C virus, read-out: EC50 in a replicon cell line assay in a 1a-H77 background
[4] = target: recombinant HCV NS3 protease, genotype 1a (Hepatitis C virus genotype 1a, UniProt P27958); assay: biochemical; settings: genotype 1a NS3 protease; read-out: IC50 in a 1a enzyme assay
Sequence of recombinant HCV NS3 protease, genotype 1a (P27958 1027-1657, other chains not shown): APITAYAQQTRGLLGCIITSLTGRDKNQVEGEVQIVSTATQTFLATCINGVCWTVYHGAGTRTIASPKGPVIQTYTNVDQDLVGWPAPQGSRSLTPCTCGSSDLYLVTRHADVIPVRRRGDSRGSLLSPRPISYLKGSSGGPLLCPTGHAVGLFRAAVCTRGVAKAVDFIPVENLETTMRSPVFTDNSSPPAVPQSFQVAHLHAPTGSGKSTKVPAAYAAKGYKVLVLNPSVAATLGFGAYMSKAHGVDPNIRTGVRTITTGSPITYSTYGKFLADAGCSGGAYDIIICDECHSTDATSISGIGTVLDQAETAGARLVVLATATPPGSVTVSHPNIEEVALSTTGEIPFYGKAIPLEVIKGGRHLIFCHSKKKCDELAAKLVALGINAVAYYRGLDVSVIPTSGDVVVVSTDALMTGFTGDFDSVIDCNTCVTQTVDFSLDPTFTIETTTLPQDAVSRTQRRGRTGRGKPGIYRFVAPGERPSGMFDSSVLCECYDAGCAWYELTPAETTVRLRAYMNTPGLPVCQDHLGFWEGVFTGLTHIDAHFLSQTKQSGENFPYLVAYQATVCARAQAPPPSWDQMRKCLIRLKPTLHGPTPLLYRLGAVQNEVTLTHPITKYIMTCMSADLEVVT

Sequence of recombinant HCV NS3 protease, genotype 1b (Q9WMX2 1027-1657, other chains not shown): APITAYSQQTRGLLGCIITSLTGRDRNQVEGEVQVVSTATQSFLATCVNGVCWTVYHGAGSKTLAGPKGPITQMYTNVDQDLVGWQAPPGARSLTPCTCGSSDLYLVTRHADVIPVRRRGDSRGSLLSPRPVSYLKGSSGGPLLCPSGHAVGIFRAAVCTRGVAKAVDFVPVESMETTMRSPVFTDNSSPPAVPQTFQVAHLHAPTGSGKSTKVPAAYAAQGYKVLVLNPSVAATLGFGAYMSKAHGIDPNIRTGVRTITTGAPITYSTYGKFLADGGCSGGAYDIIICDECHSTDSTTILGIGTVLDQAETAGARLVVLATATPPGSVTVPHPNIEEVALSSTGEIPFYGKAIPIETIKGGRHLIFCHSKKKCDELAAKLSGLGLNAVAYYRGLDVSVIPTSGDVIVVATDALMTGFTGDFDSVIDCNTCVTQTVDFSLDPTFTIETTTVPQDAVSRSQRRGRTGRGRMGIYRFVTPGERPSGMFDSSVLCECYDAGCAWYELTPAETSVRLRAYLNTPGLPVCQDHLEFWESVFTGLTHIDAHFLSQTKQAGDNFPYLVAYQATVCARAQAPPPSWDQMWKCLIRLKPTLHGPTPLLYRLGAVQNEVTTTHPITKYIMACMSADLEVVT

Compound	HLM stability value (HLM stability)	EC50 [1]	IC50 [2]	EC50 [3]	IC50 [4]
CCc1nc2ccccc2nc1O[C@@H]1C[C@H]2C(=O)N[C@]3(C(=O)NS(=O)(=O)C4CC4)C[C@H]3CC(F)(F)CCCCC[C@H](NC(=O)OC(C)(C)C)C(=O)N2C1 [Example 7, tert-butyl (2R,6S,13aS,14aR,16aS)-14a-(cyclopropylsulfonylcarbamoyl)-2-(3-ethylquinoxalin-2-yloxy)-12,12-difluoro-5,16-dioxooctadecahydrocyclopropa[e]pyrrolo [1,2-a][1,4]diazacyclopentadecin-6-ylcarbamate]	> 100 µL/min/mg	1 to 2 nM	0.1 to 0.5 nM	2 to 5 nM	0.5 to 1 nM
CC(C)(C)OC(=O)N[C@H]1CCCCCC(F)(F)C[C@@H]2C[C@@]2(C(=O)NS(=O)(=O)C2CC2)NC(=O)[C@@H]2C[C@@H](Oc3nc4ccccc4c4ccccc34)CN2C1=O [Example 19, tert-butyl (2R,6S,13aS,14aR,16aS)-14a-(cyclopropylsulfonylcarbamoyl)-12,12-difluoro-5,16-dioxo-2-(phenanthridin-6-yloxy)octadecahydrocyclopropa[e]pyrrolo[1,2-a][1,4]diazacyclopentadecin-6-ylcarbamate]	> 100 µL/min/mg	< 1 nM	< 0.1 nM	< 1 nM	< 0.1 nM
CCc1nc2ccccc2nc1O[C@@H]1C[C@H]2C(=O)N[C@]3(C(=O)NS(=O)(=O)C4(C)CC4)C[C@H]3CC(F)(F)CCCCC[C@H](NC(=O)OC(C)(C)C)C(=O)N2C1 [Example 8, tert-butyl (2R,6S ,13aS,14aR,16aS)-2-(3-ethylquinoxalin-2-yloxy)-12,12-difluoro-14a-(1-methylcyclopropylsulfonylcarbamoyl)-5,16-dioxooctadecahydrocyclopropa[e]pyrrolo[1,2-a][1,4]diazacyclopentadecin-6-ylcarbamate]	> 100 µL/min/mg	1 to 2 nM	0.1 to 0.5 nM	2 to 5 nM	0.1 to 0.5 nM
